The record followed here is US10829493B2, “Compositions and methods for treating KIT- and PDGFRA-mediated diseases” (Blueprint Medicines Corporation, priority 2019, dated 2020).

In one experiment the test system is UT-7 cells. As to the kind of experiment: UT-7 cell proliferation with SCF stimulation as a measure of wild-type KIT activity (CellTiter-Glo). It is filed as cell-based, human. The following applies: SCF-stimulated UT-7 cell proliferation. The source says: UT-7 Cell Proliferation with SCF Stimulation Assay as a Measure of Wild-Type KIT Activity
UT-7 cells are human megakaryoblastic leukemia cell lines that can be grown in culture with dependence on granulocyte macrophage colony stimulating factor (GM-CSF) or stem cell factor (SCF). UT-7 cells respond to SCF stimulation by activation of the KIT receptor tyrosine kinase and subsequent downstream signaling that can support cell growth and proliferation (Kuriu et al, 1999; Komatsu et al, 1991; Sasaki et al, 1995). Test compounds were assayed for their ability to inhibit SCF-stimulated proliferation of UT-7 cells.
Inhibition of SCF-stimulated UT-7 cell proliferation was assessed using the CellTiter-Glo assay that quantifies the amount of adenosine triphosphate (ATP) present, which is a readout of metabolically active cells and is directly proportional to the number of viable cells in culture. The ability of test compounds to inhibit SCF-stimulated UT-7 cell proliferation was determined using a 10-point dose curve ranging from 25 μM to 95.4 pM of test compound.
UT-7 cells were maintained in IMDM supplemented with 10% FBS, 5 ng/mL GM-CSF and 100 units/mL Penicillin-Streptomycin and grown in a 37° C. humidified tissue culture incubator. UT-7 cells were washed once with serum free, GM-CSF free IMDM. Cells were then resuspended in IMDM containing 4% FBS and 50 ng/mL SCF and seeded at 2500 cells per well in a volume of 22 μL in a 384-well microplate. A 10-point dose concentration series of test compounds (25.0 μM to 95.4 pM) were then added to the cells in a volume of 3.1 μL to each well (0.25% DMSO final concentration) and placed in a tissue culture incubator (5% CO2, 37° C.) for 72 hours. After 3-days with test compound, CellTiter-Glo reagent was prepared fresh and 25 μL of reagent was added to each well. The plate was mixed by shaking for 10 minutes at RT at 300 rpm on a plate shaker. The plate was read on an EnVision plate reader using the Ultra Sensitive Luminescence protocol for a 384-well plate.
(In general: In ATP-based viability assays light output follows the ATP content of the culture.)

The target of the next experiment is PDGFRα D842V (Homo sapiens (Human), UniProt P16234, D842V). In words: PDGFRα D842V biochemical enzymatic activity assay (EZReader 2 mobility shift). The following applies: at APPKM for ATP, 25 μM ATP, 90 minutes. An excerpt:
(§1) PDGFRα and KIT enzymatic activity was monitored using the Perkin Elmer electrophoretic mobility shift technology platform, the EZReader 2.
(§2) Within the linear, steady-state phase of the kinase enzymatic reaction, the mixed pool of phosphorylated (product) and non-phosphorylated (substrate) peptides was passed through the microfluidic system of the PerkinElmer EZ Reader 2, under an applied electric potential difference. The presence of the phosphate group on the product peptide provided a difference in mass and charge between that of the substrate peptide, resulting in a separation of the substrate and product pools in the sample (Perrin et al., Expert Opin Drug Discovery 2010 Jan. 5(1):51-63).
(§3) As the product and substrate peptide mixture passes the lasers within the instrument, these pools are detected (λex=488 nm, λem=568 nm) and resolved as separate peaks. The ratio between these peaks reflects the activity of the compound at that concentration, in that well, under those conditions.
Inhibition of KIT (D816V) PDGFRα (D842V) Mutant Biochemical Enzymatic Activity
(§4) All test articles were dissolved in 100% DMSO at a stock concentration of 10 mM. A 100×, 10-point, 4-fold serial dilution of all test compounds was created in 100% DMSO, starting at a relevant concentration, usually 1 mM. A volume of 0.130 μL of each concentration was transferred to the relevant well of a 384-well assay plate (Greiner 781 201) using a TTPLabtech Mosquito nano-liter dispenser. Using the Multidrop, the remaining constituents of the reaction were then added to the 0.130 μL of compound as follows:
The reaction was stopped by the addition of 70 μl of Stop buffer (100 mM HEPES pH 7.5, 0.015% Brij 35, 35 mM EDTA and 0.2% of Coating Reagent 3, Caliper Lifesciences). The plate was read on a Caliper EZReader 2.

A further experiment deals with wt KIT kinase (Homo sapiens (Human), UniProt P10721). As to the kind of experiment: Wild-type KIT binding assay (Kd determination, phage-tagged kinase, qPCR). How it is done: Kd Determinations. For most assays, including wt KIT kinase, kinase-tagged T7 phage strains were prepared in an E. coli host derived from the BL21 strain. E. coli were grown to log-phase and infected with T7 phage and incubated with shaking at 32° C. until lysis. […] The liganded beads were blocked with excess biotin and washed with blocking buffer (SeaBlock (Pierce), 1% BSA, 0.05% Tween 20, 1 mM DTT) to remove unbound ligand and to reduce non-specific binding. […] Test compounds were prepared as 111× stocks in 100% DMSO. Kds were determined using an 11-point 3-fold compound dilution series with three DMSO control points. […] The compounds were then diluted directly into the assays such that the final concentration of DMSO was 0.9%. All reactions were performed in polypropylene 384-well plate. Each was a final volume of 0.02 ml. […] The kinase concentration in the eluates was measured by qPCR.
Binding Constants (Kds). Binding constants (Kds) were calculated with a standard dose-response curve using the Hill equation: Response=Background+Signal−Background 1+(KdHill Slope/DoseHill Slope). The Hill Slope was set to −1. Curves were fitted using a non-linear least square fit with the Levenberg-Marquardt algorithm.
On the technique in general: In qPCR the cycle at which signal appears reflects the starting amount.

Experiment [1] addresses KIT D816V (Homo sapiens (Human), UniProt P10721, D816V). As to the kind of experiment: KIT D816V biochemical enzymatic activity assay (EZReader 2 mobility shift). The note with it: at APPKM for ATP, 20 μM ATP, 60 minutes.
Description: as §1, §2, §3, §4
The plate was read on a Caliper EZReader 2.

Experiment [2] has as its target KIT D816V (Homo sapiens (Human), UniProt P10721, D816V/V560G). As to the kind of experiment: HMC1.2 autophosphorylation assay (phospho-Y719 KIT AlphaLISA). The note with it: HMC1.2 cell line, KIT autophosphorylation at tyrosine 719, 90 minutes; read-out: KIT (P-KIT HMC1.2 (nM)). It is filed as cell-based. How it is done: 10,000 HMC1.2 cells were incubated in 22 μL culture media (phenol-red free IMDM, no serum) in each well of a 384-well plate and serum starved overnight in a tissue culture incubator (5% CO2, 37° C.). […] 10 μL of 100 μg/mL streptavidin donor beads (Perkin Elmer) were added to each well, blocked from light with solid black adhesive and shaken at 300 rpm at room temperature for 2 hours. Fluorescence signal was obtained on Envision (Perkin Elmer) by AlphaScreen 384 well HTS protocol.
A general note: In Alpha technology, singlet oxygen from a donor bead excites a nearby acceptor bead.

Structures are written as SMILES. pIC50, pKd: −log10 of the molar value.

Chain of KIT D816V (Homo sapiens (Human), UniProt P10721, D816V/V560G) (P10721 26-976 V560G/D816V): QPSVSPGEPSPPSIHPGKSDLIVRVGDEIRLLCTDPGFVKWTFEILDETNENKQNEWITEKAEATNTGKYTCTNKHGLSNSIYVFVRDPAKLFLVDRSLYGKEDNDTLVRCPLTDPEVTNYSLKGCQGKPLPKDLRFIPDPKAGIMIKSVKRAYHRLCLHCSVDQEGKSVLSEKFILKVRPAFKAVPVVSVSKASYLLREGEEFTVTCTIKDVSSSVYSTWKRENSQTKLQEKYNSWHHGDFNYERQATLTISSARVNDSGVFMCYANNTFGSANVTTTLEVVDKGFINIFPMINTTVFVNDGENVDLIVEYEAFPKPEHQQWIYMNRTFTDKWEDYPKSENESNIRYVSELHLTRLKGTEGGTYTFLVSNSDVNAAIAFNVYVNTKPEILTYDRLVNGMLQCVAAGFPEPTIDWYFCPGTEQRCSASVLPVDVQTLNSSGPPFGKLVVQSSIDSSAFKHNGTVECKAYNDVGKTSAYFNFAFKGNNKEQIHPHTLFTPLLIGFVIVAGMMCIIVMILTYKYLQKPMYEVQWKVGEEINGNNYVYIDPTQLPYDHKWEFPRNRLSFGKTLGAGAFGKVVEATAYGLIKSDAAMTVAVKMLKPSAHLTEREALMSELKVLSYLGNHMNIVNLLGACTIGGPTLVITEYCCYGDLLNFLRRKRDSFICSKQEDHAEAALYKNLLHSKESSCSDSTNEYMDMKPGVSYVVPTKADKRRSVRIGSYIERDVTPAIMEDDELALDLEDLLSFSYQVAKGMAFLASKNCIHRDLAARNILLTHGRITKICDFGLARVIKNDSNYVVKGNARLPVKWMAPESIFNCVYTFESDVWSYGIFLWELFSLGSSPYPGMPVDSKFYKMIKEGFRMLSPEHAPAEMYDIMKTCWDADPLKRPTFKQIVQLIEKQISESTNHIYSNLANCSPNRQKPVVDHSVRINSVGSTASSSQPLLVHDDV
Chain of wt KIT kinase (P10721 26-976): as the sequence (P10721 26-976 V560G/D816V) above, with G535V, V791D counted along it
Chain of KIT D816V (Homo sapiens (Human), UniProt P10721, D816V) (P10721 26-976 D816V): as the sequence (P10721 26-976 V560G/D816V) above, with G535V counted along it
Chain of PDGFRα D842V (P16234 24-1089 D842V): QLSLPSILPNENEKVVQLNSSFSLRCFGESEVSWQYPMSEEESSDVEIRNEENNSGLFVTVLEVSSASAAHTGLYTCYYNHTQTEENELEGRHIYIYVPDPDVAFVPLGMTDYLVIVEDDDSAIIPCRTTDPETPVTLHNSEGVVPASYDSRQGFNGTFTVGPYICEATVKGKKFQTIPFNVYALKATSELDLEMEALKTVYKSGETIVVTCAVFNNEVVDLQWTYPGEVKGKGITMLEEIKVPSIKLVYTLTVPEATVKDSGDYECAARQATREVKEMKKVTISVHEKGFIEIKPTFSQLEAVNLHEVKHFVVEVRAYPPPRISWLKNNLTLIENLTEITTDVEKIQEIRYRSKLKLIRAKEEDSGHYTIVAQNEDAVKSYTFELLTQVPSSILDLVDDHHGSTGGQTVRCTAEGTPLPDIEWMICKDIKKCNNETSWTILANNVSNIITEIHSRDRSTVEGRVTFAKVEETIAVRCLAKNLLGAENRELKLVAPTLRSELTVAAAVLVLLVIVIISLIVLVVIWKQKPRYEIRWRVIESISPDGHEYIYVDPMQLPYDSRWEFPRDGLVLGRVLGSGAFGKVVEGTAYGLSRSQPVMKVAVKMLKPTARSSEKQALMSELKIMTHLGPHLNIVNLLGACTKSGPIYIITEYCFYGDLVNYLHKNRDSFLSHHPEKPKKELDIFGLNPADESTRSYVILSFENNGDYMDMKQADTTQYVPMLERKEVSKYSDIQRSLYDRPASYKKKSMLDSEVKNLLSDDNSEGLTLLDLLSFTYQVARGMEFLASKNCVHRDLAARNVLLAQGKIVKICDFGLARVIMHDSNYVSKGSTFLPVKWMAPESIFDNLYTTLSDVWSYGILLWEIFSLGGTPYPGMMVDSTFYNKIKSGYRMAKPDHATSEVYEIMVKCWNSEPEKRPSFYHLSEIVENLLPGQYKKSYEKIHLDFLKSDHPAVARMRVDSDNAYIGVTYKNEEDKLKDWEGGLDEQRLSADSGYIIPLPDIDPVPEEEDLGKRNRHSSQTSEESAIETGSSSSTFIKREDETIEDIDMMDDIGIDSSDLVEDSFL

In the case of `C[C@](N)(c1ccc(F)cc1)c1cnc(N2CCN(c3ncnn4cc(-c5cnn(C6(CO)CC6)c5)cc34)CC2)nc1` [Compound 13, (S)-(1-(4-(4-(4-(5-(1-Amino-1-(4-fluorophenyl)ethyl)pyrimidin-2-yl)piperazin-1-yl)pyrrolo[2,1-f][1,2,4]triazin-6-yl)-1H-pyrazol-1-yl)cyclopropyl)methanol], the IC50 with UT-7 cells (Homo sapiens, UT7, 72 h) is 90.1 to 150 nM. Also, the negative-log IC50 (pIC50) (commonly the IC50 on a negative log10 scale, so that one unit is a factor of ten) on PDGFRα D842V was no less than 9.52.
`C[C@@H](CO)n1cc(-c2cc3c(N4CCN(c5ncc([C@@](C)(N)c6ccc(F)cc6)cn5)CC4)ncnn3c2)cn1` [Compound 6, (S)-2-(4-(4-(4-(5-((S)-1-amino-1-(4-fluorophenyl)ethyl)pyrimidin-2-yl)piperazin-1-yl)pyrrolo[2,1-f][1,2,4]triazin-6-yl)-1H-pyrazol-1-yl)propan-1-ol] returned an IC50 in the experiment on UT-7 cells (Homo sapiens, UT7, 72 h) of less than 90 nM.
With `C[C@H](O)Cn1cc(-c2cc3c(N4CCN(c5ncc([C@@](C)(N)c6ccc(F)cc6)cn5)CC4)ncnn3c2)cn1` [Compound 9], the IC50 in the experiment with UT-7 cells (Homo sapiens, UT7, 72 h) was 90.1 to 150 nM. The negative-log IC50 (pIC50) on PDGFRα D842V is no less than 9.52.
The compound `CC(C)(CO)n1cc(-c2cc3c(N4CCN(c5ncc([C@@](C)(N)c6ccc(F)cc6)cn5)CC4)ncnn3c2)cn1` [Compound 2, (S)-2-(4-(4-(4-(5-(1-amino-1-(4-fluorophenyl)ethyl)pyrimidin-2-yl)piperazin-1-yl)pyrrolo[2,1-f][1,2,4]triazin-6-yl)-1H-pyrazol-1-yl)-2-methylpropan-1-ol] showed an IC50 with UT-7 cells (Homo sapiens, UT7, 72 h) of 150 to 200 nM.
The compound `C[C@](N)(c1ccc(F)cc1)c1cnc(N2CCN(c3ncnn4cc(-c5cnn(C6COC6)c5)cc34)CC2)nc1` [Compound 7, (S)-1-(4-Fluorophenyl)-1-(2-(4-(6-(1-(oxetan-3-yl)-1H-pyrazol-4-yl)pyrrolo[2,1-f][1,2,4]triazin-4-yl)piperazin-1-yl)pyrimidin-5-yl)ethan-1-amine] returned an IC50 with UT-7 cells (Homo sapiens, UT7, 72 h) of 90.1 to 150 nM. Besides, the pIC50 at PDGFRα D842V was no less than 9.52.
In the case of `C[C@](N)(c1ccc(F)cc1)c1cnc(N2CCN(c3ncnn4cc(-c5cnn([C@@H]6CC[C@H]6O)c5)cc34)CC2)nc1` (single isomer, unassigned) [Compound 22], the pKd (usually the negative decadic logarithm of the Kd, by convention in mol/L) on wt KIT kinase was greater than 8.00. In addition, the pIC50 at KIT D816V [1] and on PDGFRα D842V was no less than 9.52 throughout. In addition, the IC50 in the experiment on UT-7 cells (Homo sapiens, UT7, 72 h) was 90.1 to 150 nM; on KIT D816V [2], less than 4.5 nM.
In turn, `C[C@](N)(c1ccc(F)cc1)c1cnc(N2CCN(c3ncnn4cc(-c5cnn(CC6(O)CC6)c5)cc34)CC2)nc1` [Compound 12, (S)-1-((4-(4-(4-(5-(1-Amino-1-(4-fluorophenyl)ethyl)pyrimidin-2-yl)piperazin-1-yl)pyrrolo[2,1-f][1,2,4]triazin-6-yl)-1H-pyrazol-1-yl)methyl)cyclopropan-1-ol] displayed an IC50 with UT-7 cells (Homo sapiens, UT7, 72 h) of 90.1 to 150 nM. In addition, the pIC50 at PDGFRα D842V is no less than 9.52.
On wt KIT kinase, `C[C@](N)(c1ccc(F)cc1)c1cnc(N2CCN(c3ncnn4cc(-c5cnn([C@H]6COC[C@@H]6O)c5)cc34)CC2)nc1` (single isomer, unassigned) [Compound 18] gave a negative logarithm of the Kd (pKd) greater than 8.00. For the same compound, the pIC50 at KIT D816V [1] and at PDGFRα D842V was no less than 9.52 throughout. For the same compound, the IC50 with UT-7 cells (Homo sapiens, UT7, 72 h) is 90.1 to 150 nM; on KIT D816V [2], less than 4.5 nM.
The compound `C[C@H](CO)n1cc(-c2cc3c(N4CCN(c5ncc([C@@](C)(N)c6ccc(F)cc6)cn5)CC4)ncnn3c2)cn1` [Compound 5, (R)-2-(4-(4-(4-(5-((S)-1-Amino-1-(4-fluorophenyl)ethyl)pyrimidin-2-yl)piperazin-1-yl)pyrrolo[2,1-f][1,2,4]triazin-6-yl)-1H-pyrazol-1-yl)propan-1-ol] registered an IC50 with UT-7 cells (Homo sapiens, UT7, 72 h) of less than 90 nM.
The same measure, in the same setting: to `C[C@@H](O)Cn1cc(-c2cc3c(N4CCN(c5ncc([C@@](C)(N)c6ccc(F)cc6)cn5)CC4)ncnn3c2)cn1` [Compound 3, (R)1-{4-[4-(4-{5-[(S)-1-Amino-1-(4-fluoro-phenyl)-ethyl]-pyrimidin-2-yl}-piperazin-1-yl)-pyrrolo[2,1-f][1,2,4]triazin-6-yl]-pyrazol-1-yl}-propan-2-ol] belongs less than 90 nM.
Compound `C[C@](N)(c1ccc(F)cc1)c1cnc(N2CCN(c3ncnn4cc(-c5cnn([C@H]6COC[C@H]6O)c5)cc34)CC2)nc1` (single isomer, unassigned) [Compound 20] had a negative-log Kd (pKd) on wt KIT kinase greater than 8.00. The pIC50 at KIT D816V [1] and on PDGFRα D842V was no less than 9.52 throughout. Besides, the IC50 with UT-7 cells (Homo sapiens, UT7, 72 h) was 90.1 to 150 nM; at KIT D816V [2] it was less than 4.5 nM.
As to `C[C@](N)(c1ccc(F)cc1)c1cnc(N2CCN(c3ncnn4cc(-c5cnn([C@@H]6COC[C@@H]6O)c5)cc34)CC2)nc1` (single isomer, unassigned) [Compound 17], the negative-log Kd (pKd) on wt KIT kinase is greater than 8.00. Besides, the negative logarithm of the IC50 (pIC50) on KIT D816V [1] is 9.00 to 9.51; on PDGFRα D842V, no less than 9.52. Further, the IC50 in the experiment with UT-7 cells (Homo sapiens, UT7, 72 h) is 90.1 to 150 nM; at KIT D816V [2], 4.6 to 10 nM.
The compound `C[C@](N)(c1ccc(F)cc1)c1cnc(N2CCN(c3ncnn4cc(-c5cnn([C@H]6C[C@H](O)C6)c5)cc34)CC2)nc1` [Compound 11, trans-3-{4-[4-(4-{5-[1-Amino-1-(4-fluoro-phenyl)-ethyl]-pyrimidin-2-yl}-piperazin-1-yl)-pyrrolo[2,1-f][1,2,4]triazin-6-yl]-pyrazol-1-yl}-cyclobutanol] had a negative logarithm of the Kd (pKd) on wt KIT kinase greater than 8.00. In addition, the pIC50 at KIT D816V [1] and at PDGFRα D842V was no less than 9.52 in each case. In addition, the IC50 lay within 90.1 to 150 nM in the experiment on UT-7 cells (72 hours) and 4.6 to 10 nM at KIT D816V [2].
In the experiment with UT-7 cells (Homo sapiens, UT7, 72 h), `CC(C)(O)Cn1cc(-c2cc3c(N4CCN(c5ncc([C@@](C)(N)c6ccc(F)cc6)cn5)CC4)ncnn3c2)cn1` [Compound 1, (S)-1-(4-(4-(4-(5-(1-Amino-1-(4-fluorophenyl)ethyl)pyrimidin-2-yl)piperazin-1-yl)pyrrolo[2,1-f][1,2,4]triazin-6-yl)-1H-pyrazol-1-yl)-2-methylpropan-2-ol] registered an IC50 of 150 to 200 nM.
